Our source for the EC50 values is patent US9205077B2, “2-alkoxy-substituted dicyanopyridines and their use” (Bayer Intellectual Property GmbH, priority 2008, dated 2015).

What all share (assay type): cell-based
The target in one test is T1, adenosine A2b receptor (Homo sapiens, UniProt P29275).
T1 construct: expressed in transfected cells; host or cells: CHO (Chinese Hamster Ovary) permanent line, stably transfected
T1 sequence (P29275 1-332): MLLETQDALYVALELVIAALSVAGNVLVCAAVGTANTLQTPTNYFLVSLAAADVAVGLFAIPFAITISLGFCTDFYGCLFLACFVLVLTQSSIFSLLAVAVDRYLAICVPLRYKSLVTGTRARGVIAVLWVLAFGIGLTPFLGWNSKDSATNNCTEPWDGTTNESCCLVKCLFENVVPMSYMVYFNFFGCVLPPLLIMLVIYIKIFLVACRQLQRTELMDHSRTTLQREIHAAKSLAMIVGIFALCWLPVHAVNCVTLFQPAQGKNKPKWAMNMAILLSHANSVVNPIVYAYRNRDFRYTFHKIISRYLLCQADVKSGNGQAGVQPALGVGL
In words: Indirect determination of the adenosine agonism by way of gene expression (luciferase reporter), A2b cells. The following applies: CHO cells stably transfected with A2b receptor cDNA; 50% of maximum stimulation of luciferase. An excerpt: (§1) B-1. Indirect Determination of the Adenosine Agonism by Way of Gene Expression
(§2) Cells of the CHO (Chinese Hamster Ovary) permanent line are transfected stably with the cDNA for the adenosine receptor subtypes A1, A2a and A2b. The adenosine A1 receptors are coupled to the adenylate cyclase by way of Gi proteins, while the adenosine A2a and A2b receptors are coupled by way of Gs proteins. In correspondence with this, the formation of cAMP in the cell is inhibited or stimulated, respectively. After that, expression of the luciferase is modulated by way of a cAMP-dependent promoter. The luciferase test is optimized, with the aim of high sensitivity and reproducibility, low variance and good suitability for implementation on a robot system, by varying several test parameters, such as cell density, duration of the growth phase and the test incubation, forskolin concentration and medium composition. The following test protocol is used for pharmacologically characterizing cells and for the robot-assisted substance screening:
(§3) The stock cultures are grown, at 37° C. and under 5% CO2, in DMEM/F12 medium containing 10% FCS (fetal calf serum) and in each case split 1:10 after 2-3 days. Test cultures are seeded in 384-well plates with 2000 cells per well and grown at 37° C. for approx. 48 hours. The medium is then replaced with a physiological sodium chloride solution (130 mM sodium chloride, 5 mM potassium chloride, 2 mM calcium chloride, 20 mM HEPES, 1 mM magnesium chloride hexahydrate, 5 mM sodium bicarbonate, pH 7.4). The substances to be tested, which are dissolved in DMSO, are pipetted into the test cultures (maximum final concentration of DMSO in the test mixture: 0.5%) in a dilution series of from 5×10^−11 M to 3×10^−6 M (final concentration). 10 minutes later, forskolin is added to the A1 cells and all the cultures are subsequently incubated at 37° C. for four hours. After that, 35 μl of a solution which is composed of 50% lysis reagent (30 mM disodium hydrogenphosphate, 10% glycerol, 3% TritonX100, 25 mM TrisHCl, 2 mM dithiotreitol (DTT), pH 7.8) and 50% luciferase substrate solution (2.5 mM ATP, 0.5 mM luciferin, 0.1 mM coenzyme A, 10 mM tricine, 1.35 mM magnesium sulphate, 15 mM DTT, pH 7.8) are added to the test cultures, which are shaken for approx. 1 minute and the luciferase activity is measured using a camera system. The EC50 values are determined, i.e., the concentrations at which 50% of the luciferase response is inhibited in the case of the A1 cell, and, respectively, 50% of the maximum stimulation with the corresponding substance is achieved in the case of the A2b and A2a cells. […] Pharmacol., 357, 1-9 (1998)).

The target of another test is T2, adenosine A2a receptor (Homo sapiens, UniProt P29274).
T2 construct: expressed in transfected cells; host or cells: CHO (Chinese Hamster Ovary) permanent line, stably transfected
T2 sequence (P29274 whole entry): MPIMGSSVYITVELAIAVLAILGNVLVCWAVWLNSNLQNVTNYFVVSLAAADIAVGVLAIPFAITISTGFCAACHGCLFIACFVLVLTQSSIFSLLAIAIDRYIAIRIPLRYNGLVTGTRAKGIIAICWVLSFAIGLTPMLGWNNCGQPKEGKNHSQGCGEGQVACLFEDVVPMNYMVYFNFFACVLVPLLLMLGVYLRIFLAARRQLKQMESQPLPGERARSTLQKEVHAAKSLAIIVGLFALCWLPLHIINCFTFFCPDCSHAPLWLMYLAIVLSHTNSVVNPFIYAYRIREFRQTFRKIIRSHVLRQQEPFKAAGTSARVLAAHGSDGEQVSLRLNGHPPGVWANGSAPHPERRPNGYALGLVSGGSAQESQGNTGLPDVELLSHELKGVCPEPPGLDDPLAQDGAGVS
Description: Indirect determination of the adenosine agonism by way of gene expression (luciferase reporter), A2a cells. Particulars: CHO cells stably transfected with A2a receptor cDNA; 50% of maximum stimulation of luciferase.
Text: as §1, §2, §3

The next test has as its target T3, adenosine A1 receptor (Homo sapiens, UniProt P30542).
T3 construct: expressed in transfected cells; host or cells: CHO (Chinese Hamster Ovary) permanent line, stably transfected
T3 sequence (P30542 1-326): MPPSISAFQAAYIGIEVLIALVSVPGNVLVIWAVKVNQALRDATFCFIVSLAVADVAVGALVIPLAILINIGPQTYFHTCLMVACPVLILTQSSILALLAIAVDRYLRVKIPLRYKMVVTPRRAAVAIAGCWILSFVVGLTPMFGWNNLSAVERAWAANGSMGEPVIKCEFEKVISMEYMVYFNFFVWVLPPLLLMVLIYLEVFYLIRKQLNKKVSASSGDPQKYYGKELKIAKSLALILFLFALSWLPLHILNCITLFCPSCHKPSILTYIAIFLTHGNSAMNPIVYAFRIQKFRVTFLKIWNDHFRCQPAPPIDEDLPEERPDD
Description: Indirect determination of the adenosine agonism by way of gene expression (luciferase reporter), A1 cells. Particulars: CHO cells stably transfected with A1 receptor cDNA; 1 μM forskolin; 50% inhibition of luciferase response.
Text: as §1, §2, §3

As to `CCOc1nc(SCc2csc(-c3ccc(Cl)cc3)n2)c(C#N)c(-c2ccc(OCCO)cc2)c1C#N` [Example 16, 2-({[2-(4-Chlorophenyl)-1,3-thiazol-4-yl]methyl}sulphanyl)-6-ethoxy-4-[4-(2-hydroxyethoxy)-phenyl]pyridine-3,5-dicarbonitrile], the EC50 was over 3000 nM on adenosine A2b receptor, 527 nM on adenosine A2a receptor and 0.8 nM at adenosine A1 receptor.
Turning to `N#Cc1c(OCCCO)nc(SCc2csc(-c3ccc(Cl)cc3)n2)c(C#N)c1-c1ccc(OCCO)cc1` [Example 3, 2-({[2-(4-Chlorophenyl)-1,3-thiazol-4-yl]methyl}sulphanyl)-4-[4-(2-hydroxyethoxy)phenyl]-6-(3-hydroxypropoxy)pyridine-3,5-dicarbonitrile], the EC50 on adenosine A2b receptor was found to be 263 nM; at adenosine A2a receptor it was 689 nM; at adenosine A1 receptor, 0.6 nM.
The corresponding values for `COc1nc(SCc2csc(-c3ccc(Cl)cc3)n2)c(C#N)c(-c2ccc(OC[C@@H](O)CO)cc2)c1C#N` [Example 22, 2-({[2-(4-Chlorophenyl)-1,3-thiazol-4-yl]methyl}sulphanyl)-4-(4-{[(2S)-2,3-dihydroxypropyl]-oxy}phenyl)-6-methoxypyridine-3,5-dicarbonitrile] are 142 nM, 1260 nM and 2.1 nM.
For `N#Cc1c(OCCCO)nc(SCc2csc(-c3ccc(Cl)cc3)n2)c(C#N)c1-c1cncs1` [Example 6, 2-({[2-(4-Chlorophenyl)-1,3-thiazol-4-yl]methyl}sulphanyl)-6-(3-hydroxypropoxy)-4-(1,3-thiazol-5-yl)pyridine-3,5-dicarbonitrile], the EC50 at adenosine A2b receptor is over 3000 nM; at adenosine A2a receptor, over 3000 nM; on adenosine A1 receptor, 5.7 nM.
`CCOc1nc(SCc2coc(-c3ccc(Cl)cc3)n2)c(C#N)c(-c2ccc(OCCO)cc2)c1C#N` [Example 15, 2-({[2-(4-Chlorophenyl)-1,3-oxazol-4-yl]methyl}sulphanyl)-6-ethoxy-4-[4-(2-hydroxyethoxy)-phenyl]pyridine-3,5-dicarbonitrile]: the results for the EC50 on adenosine A2b receptor, on adenosine A2a receptor and on adenosine A1 receptor were over 3000 nM, over 3000 nM and 4.8 nM, respectively.
As to `N#Cc1c(OCCO)nc(SCc2csc(-c3ccc(Cl)cc3)n2)c(C#N)c1-c1ccc(OCCO)cc1` [Example 19], the EC50 turned out to be 177 nM at adenosine A2b receptor, 685 nM at adenosine A2a receptor and 0.5 nM on adenosine A1 receptor.
With `CNC(=O)c1cc(CSc2nc(OCCO)c(C#N)c(-c3ccccc3)c2C#N)ccn1` [Example 18, 4-({[3,5-Dicyano-6-(2-hydroxyethoxy)-4-phenylpyridin-2-yl]thio}methyl)-N-methylpyridine-2-carboxamide], the EC50 on adenosine A2b receptor was over 3000 nM; on adenosine A2a receptor, 1740 nM; on adenosine A1 receptor, 0.3 nM.
Take `N#Cc1c(OCCCO)nc(SCc2csc(-c3ccc(Cl)cc3)n2)c(C#N)c1-c1ccccc1` [Example 2, 2-({[2-(4-Chlorophenyl)-1,3-thiazol-4-yl]methyl}sulphanyl)-6-(3-hydroxypropoxy)-4-phenylpyridine-3,5-dicarbonitrile]: the EC50 on adenosine A2b receptor is 534 nM; at adenosine A2a receptor, over 3000 nM; at adenosine A1 receptor, 0.7 nM.
Regarding `COc1cccc(CSc2nc(OC)c(C#N)c(-c3ccc(OCCO)cc3)c2C#N)c1` [Example 11, 4-[4-(2-Hydroxyethoxy)phenyl]-2-methoxy-6-[(3-methoxybenzyl)sulphanyl]pyridine-3,5-dicarbonitrile], the EC50 at adenosine A2b receptor was over 3000 nM; on adenosine A2a receptor, 1110 nM; on adenosine A1 receptor, 0.8 nM.
`COc1nc(SCc2c[nH]cn2)c(C#N)c(-c2ccc(OCCO)cc2)c1C#N` [Example 21, Formic acid 4-[4-(2-hydroxyethoxy)phenyl]-2-[(1H-imidazol-4-ylmethyl)sulphanyl]-6-methoxypyridine-3,5-dicarbonitrile (1:1)]: the EC50 on adenosine A2b receptor is 28.6 nM; at adenosine A2a receptor, over 3000 nM; on adenosine A1 receptor, 73.2 nM.
`COc1nc(SCc2cccnc2)c(C#N)c(-c2ccc(OCCO)cc2)c1C#N` [Example 12, 4-[4-(2-Hydroxyethoxy)phenyl]-2-methoxy-6-[(pyridin-3-ylmethyl)sulphanyl]pyridine-3,5-dicarbonitrile]: the EC50 on adenosine A2b receptor is over 3000 nM; on adenosine A2a receptor it was 547 nM; on adenosine A1 receptor it was 1.2 nM.
With `CCCOc1nc(SCc2csc(-c3ccc(Cl)cc3)n2)c(C#N)c(-c2ccccc2)c1C#N` [Example 1, 2-({[2-(4-Chlorophenyl)-1,3-thiazol-4-yl]methyl}sulphanyl)-4-phenyl-6-propoxypyridine-3,5-dicarbonitrile], the EC50 on adenosine A2b receptor is over 3000 nM; on adenosine A2a receptor, over 3000 nM; at adenosine A1 receptor, 1.3 nM.
Regarding `COc1nc(SCc2csc(-c3ccc(Cl)cc3)n2)c(C#N)c(-c2ccc(OCCO)cc2)c1C#N` [Example 8, 2-({[2-(4-Chlorophenyl)-1,3-thiazol-4-yl]methyl}sulphanyl)-4-[4-(2-hydroxyethoxy)phenyl]-6-methoxypyridine-3,5-dicarbonitrile], the EC50 was 105 nM on adenosine A2b receptor, 1220 nM on adenosine A2a receptor and 0.3 nM at adenosine A1 receptor.
